Data on one compound can be found in paper PMC7151078, “A Novel NMDA Receptor Antagonist Protects against Cognitive Decline Presented by Senescent Mice” (Pharmaceutics, 2020).

Assay [1] relates to SAMR1 and SAMP8 mice. Kind of assay: Novel object recognition test (NORT). It is filed as in vivo, mouse. The following applies: 5 mg/kg/day. The method, then: Male SAMR1 and SAMP8 mice (n = 41) with 20-weeks-old were used to carry out cognitive and molecular analysis. The animals were randomly divided into four groups: SAMR1 control (SR1 Ct) group (n = 11), SAMP8 control (SP8 Ct) group (n = 8), SAMR1 treated with RL-208 (SR1 RL-208 (5 mg/Kg)) group (n = 10) and SAMP8 treated with RL-208 (SP8 RL-208 (5 mg/Kg)) group (n = 12). Animals had free access to food and water, under standard temperature conditions (22±2 °C) and 12h:12h light-dark cycles (300 lux/0 lux). RL-208, (3,4,8,9-tetramethyltetracyclo[4.4.0.0^3,9.0^4,8]dec-1-yl)-methylamine hydrochloride, (5 mg/kg/day) was administered through drinking water for four weeks before starting the cognitive test. RL-208 was administered up to euthanasia (Figure 1A). Water consumption was controlled each week for each cage and strain. Afterwards, RL-208 concentration was adjusted accordingly to reach the optimal dose for each cage. The novel object recognition test (NORT) allows evaluating short- and long-term recognition memory involving cortical areas and the hippocampus. The experimental apparatus used for this test was a 90º, two-arm, 25-cm-long, 20-cm-high, and a 5-cm-wide black maze of black polyvinyl chloride (Figure 1D). The walls could be removed for easy cleaning with 70% ethanol to eliminate olfactory cues, and light intensity in mid-field was 30 lux. The objects to be discriminated were made of plastic and chosen not to frighten mice and without any part likely to be bitten. Before performing the test, the mice were individually habituated to the apparatus for 10 min during 3 consecutive days. On day four the next day, the animals were allowed to explore freely a 10 min acquisition trial (First trial), during which they were placed in the maze in the presence of two identical novel objects (A+A’ or B+B’) at the end of each arm. The mouse was then removed from the apparatus and returned to its home cage. A 10 min retention trial (Second trial) was carried out two hours later. […] The time that mice explored the novel object (TN) and time that mice explored the old object (TO) were measured from the video recordings from each trial session Exploration of an object was defined as pointing the nose towards the object at a distance ≤2 cms and/or touching it with the nose. […] To avoid object preference biases objects A and B were counterbalanced so that one-half of the animals in each experimental group were first exposed to object A and then to object B, whereas the other half first saw object B and then object A. To evaluate the cognitive performance, the discrimination index (DI) was calculated, which is defined as (TN-TO)/(TN+TO).

In assay [2] the test system is SAMR1 and SAMP8 mice. Briefly: Hippocampal gene expression by real-time qPCR. It is filed as in vivo, mouse. The following applies: hippocampus. How it is done:
Male SAMR1 and SAMP8 mice (n = 41) with 20-weeks-old were used to carry out cognitive and molecular analysis. The animals were randomly divided into four groups: SAMR1 control (SR1 Ct) group (n = 11), SAMP8 control (SP8 Ct) group (n = 8), SAMR1 treated with RL-208 (SR1 RL-208 (5 mg/Kg)) group (n = 10) and SAMP8 treated with RL-208 (SP8 RL-208 (5 mg/Kg)) group (n = 12). Animals had free access to food and water, under standard temperature conditions (22±2 °C) and 12h:12h light-dark cycles (300 lux/0 lux). RL-208, (3,4,8,9-tetramethyltetracyclo[4.4.0.0^3,9.0^4,8]dec-1-yl)-methylamine hydrochloride, (5 mg/kg/day) was administered through drinking water for four weeks before starting the cognitive test. RL-208 was administered up to euthanasia (Figure 1A). Water consumption was controlled each week for each cage and strain. Afterwards, RL-208 concentration was adjusted accordingly to reach the optimal dose for each cage. Total RNA isolation from hippocampal samples was carried out using TRIsure^TM reagent following the manufacturer’s instructions (Bioline, Meridian Bioscience Inc., UK). The yield, purity, and quality of RNA were determined spectrophotometrically with a NanoDrop^TM ND-1000 (Thermo Scientific, Wilmington, DE, USA) apparatus and an Agilent 2100B Bioanalyzer (Agilent Technologies, Palo Alto, CA, USA). RNAs with 260/280 ratios and RIN higher than 1.9 and 7.5, respectively, were selected. Reverse transcription-polymerase chain reaction (RT-PCR) was performed as follows: 2 μg of messenger RNA (mRNA) was reverse-transcribed using the High Capacity cDNA Reverse Transcription kit (Applied Biosystems, Foster City, CA, USA). Real-time quantitative PCR (qPCR) was used to quantify the mRNA expression of OS and synaptic plasticity genes listed in Table S2. SYBR® Green real-time PCR was performed on a Step One Plus Detection System (Applied-Biosystems, Foster City, CA, USA) employing SYBR® Green PCR Master Mix (Applied-Biosystems, Foster City, CA, USA). Each reaction mixture contained 6.75 μL of complementary DNA (cDNA) (which concentration was 2 μg), 0.75 μL of each primer (which concentration was 100 nM), and 6.75 μL of SYBR® Green PCR Master Mix (2X). Data were analyzed utilizing the comparative cycle threshold (Ct) method (ΔΔCt), where the housekeeping gene level was used to normalize differences in sample loading and preparation. Normalization of expression levels was performed with β-actin for SYBR® Green-based real-time PCR results. Each sample was analyzed in duplicate, and the results represent the n-fold difference of the transcript levels among different groups.
On the technique in general: Quantitative PCR measures a nucleic acid by following its amplification.

Turning to `CC12CC3CC1(C)C1(C)CC3(CN)CC21C.Cl` [RL-208, (3,4,8,9-tetramethyltetracyclo [4.4.0.0^3,9.0^4,8]dec-1-yl)methylamine hydrochloride], the “NORT short-term recognition memory (DI)” value in the assay with SAMR1 and SAMP8 mice [1] (SP8 RL-208 vs SP8 Ct, 2 h retention) is reported as “significant gain”. Besides, the “NORT long-term recognition memory (DI)” value in the assay on SAMR1 and SAMP8 mice [1] (SP8 RL-208 vs SP8 Ct, 24 h retention) was “significant gain”. Also, the “NORT long-term DI” value in the assay with SAMR1 and SAMP8 mice [1] (between SR1 groups) is “no significant changes”. In addition, in the assay on SAMR1 and SAMP8 mice [1] (between SR1 groups), the “NORT short-term DI” value was “no significant changes”. Also, the Tgf gene expression entry in the assay on SAMR1 and SAMP8 mice [2] (RL-208 treated mice groups vs control groups) is given as “significant gain”. In addition, the Vgf gene expression result in the assay with SAMR1 and SAMP8 mice [2] (SP8 RL-208 vs SP8 Ct) is recorded as “significant increase”; with SAMR1 and SAMP8 mice [2] (between SR1 mice groups), “no changes”. In addition, the Cox2 gene expression entry in the assay on SAMR1 and SAMP8 mice [2] (treated groups vs controls, significant in the SP8 strain) is “decreased”. Also, in the assay on SAMR1 and SAMP8 mice [2] (treated mice), the Hmox1 gene expression entry is listed as “elevated”.
